# Results reported in patent US10988459B2 (priority 2015, dated 2021).
# pKi: −log10 of the molar value. Values joined by “and” are separate entries in the source; they are usually repeats but may differ in a detail not shown here. Identical values can stand only once.
# Target: human RIP1 kinase domain (2-375) (Homo sapiens (Human), UniProt Q13546)
# Test: biochemical
# Type: biochemical
# Conditions: tight-binding apparent inhibition constant; human RIP1 kinase domain (2-375) 50 nM, 50 uM ATP, 2 hours; read-out: Ki
# Summary of the method: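 50 nM purified kinase domain from baculovirus-infected insect cells, incubated 2 h with compound in 50 mM Hepes pH 7.5, 30 mM MgCl2, 1 mM DTT, 50 uM ATP, 0.002% Brij-35, 0.5% DMSO. ADP formation read by Transcreener FP at 633 nm excitation. Ki^app fitted with the Morrison tight-binding equation.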
# Sequence of human RIP1 kinase domain (2-375) (Q13546 2-375): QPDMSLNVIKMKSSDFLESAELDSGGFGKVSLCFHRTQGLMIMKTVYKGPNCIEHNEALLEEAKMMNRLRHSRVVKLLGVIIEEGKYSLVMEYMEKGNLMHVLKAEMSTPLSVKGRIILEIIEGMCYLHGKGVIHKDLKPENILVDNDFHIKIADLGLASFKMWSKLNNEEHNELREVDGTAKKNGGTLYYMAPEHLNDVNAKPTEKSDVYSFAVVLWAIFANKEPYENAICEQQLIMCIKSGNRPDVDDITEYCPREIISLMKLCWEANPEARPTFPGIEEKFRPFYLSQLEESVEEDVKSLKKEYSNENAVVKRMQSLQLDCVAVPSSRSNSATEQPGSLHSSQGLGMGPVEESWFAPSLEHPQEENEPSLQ
row,Structure (SMILES),pKi
1,"Cc1cc2n(n1)CC[C@H](NC(=O)c1nc3n(n1)CCOC31CCCC1)C(=O)N2C [Example 567, N-[(6S)-2,4-dimethyl-5-oxo-7,8-dihydro-6H-pyrazolo[1,5-a][1,3]diazepin-6-yl]spiro[5,6-dihydro-[1,2,4]triazolo[5,1-c][1,4]oxazine-8,1′-cyclopentane]-2-carboxamide]",6.39
2,"Cc1cc2n(n1)CC[C@H](NC(=O)c1ncn(CC3CCC(F)(F)C3)n1)C(=O)N2C (stereo partly drawn) [Example 569, 1-[(3,3-difluorocyclopentyl)methyl]-N-(6S)-2,4-dimethyl-5-oxo-7,8-dihydro-6H-pyrazolo[1,5-a][1,3]diazepin-6-yl-1,2,4-triazole-3-carboxamide]",6.24
3,"CN1C(=O)[C@@H](NC(=O)c2nc3n(n2)CC[C@H]3c2ccccc2)COc2ccccc21 [Example 572, (7S)-7-phenyl-N-[(3S)-5-methyl-4-oxo-2,3-dihydro-1,5-benzoxazepin-3-yl]-6,7-dihydro-5H-pyrrolo[1,2-b][1,2,4]triazole-2-carboxamide]",6.35
4,"Cc1cc2n(n1)CC[C@H](NC(=O)c1nc3n(n1)CCC3c1ccccc1)C(=O)N2C (stereo partly drawn) [Example 574, 7-phenyl-N-[(6S)-2,4-dimethyl-5-oxo-7,8-dihydro-6H-pyrazolo[1,5-a][1,3]diazepin-6-yl]-6,7-dihydro-5H-pyrrolo[1,2-b][1,2,4]triazole-2-carboxamide]",7.24
5,"Cc1ncc2n1CC[C@@H](NC(=O)c1ncn(Cc3cc(F)ccc3F)n1)C(=O)N2C [Example 577, 1-[(2,5-difluorophenyl)methyl]-N-(3R)-1,7-dimethyl-2-oxo-4,5-dihydro-3H-imidazo[1,5-a][1,3]diazepin-3-yl-1,2,4-triazole-3-carboxamide]",7.10
6,"Cc1ncn2c1N(C)C(=O)[C@H](NC(=O)c1ncn(Cc3ccccc3F)n1)CC2 [Example 580, 1-[(2-fluorophenyl)methyl]-N-[(3R)-1,9-dimethyl-2-oxo-4,5-dihydro-3H-imidazo[1,5-a][1,3]diazepin-3-yl]-1,2,4-triazole-3-carboxamide]",7.27
7,"CN1C(=O)[C@@H](NC(=O)c2ncn(Cc3ccccc3Cl)n2)CCn2nccc21 [Example 582, 1-[(2-chlorophenyl)methyl]-N-(6S)-4-methyl-5-oxo-7,8-dihydro-6H-pyrazolo[1,5-a][1,3]diazepin-6-yl-1,2,4-triazole-3-carboxamide]",8.12 and 7.37
8,Cc1cc2n(n1)CC[C@H](NC(=O)c1ncn(Cc3ccccc3)n1)C(=O)N2 [Example 586],7.20
9,"Cc1cc2n(n1)CC[C@H](NC(=O)c1ncn(Cc3ccccc3C#N)n1)C(=O)N2C [Example 590, 1-[(2-cyanophenyl)methyl]-N-(6S)-2,4-dimethyl-5-oxo-7,8-dihydro-6H-pyrazolo[1,5-a][1, 3]diazepin-6-yl-1,2,4-triazole-3-carboxamide]",6.15
10,COc1ccccc1Cn1cnc(C(=O)N[C@H]2CCn3nc(C4CC4)cc3N(C)C2=O)n1 [Example 592],7.32
11,CN1C(=O)[C@@H](NC(=O)c2ncn(Cc3ccccc3C#N)n2)CCn2nc(C3CC3)cc21 [Example 593],7.10
12,CN1C(=O)[C@@H](NC(=O)c2ncn(CC3CCC(F)(F)C3)n2)CCn2nc(C3CC3)cc21 (stereo partly drawn) [Example 594],6.38
13,"Cc1nc(C)n2c1N(C)C(=O)[C@H](NC(=O)c1ncn(Cc3ccccc3F)n1)CC2 [Example 596, 1-[(2-fluorophenyl)methyl]-N-(3R)-1,7,9-trimethyl-2-oxo-4,5-dihydro-3H-imidazo[1,5-a][1,3]diazepin-3-yl-1,2,4-triazole-3-carboxamide]",7.00
14,"Cc1nc(C)n2c1N(C)C(=O)[C@H](NC(=O)c1ncn(Cc3c(F)cccc3F)n1)CC2 [Example 597, 1-[(2,6-difluorophenyl)methyl]-N-(3R)-1,7,9-trimethyl-2-oxo-4,5-dihydro-3H-imidazo[1,5-a][1,3]diazepin-3-yl-1,2,4-triazole-3-carboxamide]",6.89
15,"Cc1nc(C)n2c1N(C)C(=O)[C@H](NC(=O)c1ncn(Cc3cc(F)ccc3F)n1)CC2 [Example 598, 1-[(2,5-difluorophenyl)methyl]-N-(3R)-1,7,9-trimethyl-2-oxo-4,5-dihydro-3H-imidazo[1,5-a][1,3]diazepin-3-yl-1,2,4-triazole-3-carboxamide]",6.89
16,"CN1C(=O)[C@H](NC(=O)c2ncn(Cc3c(F)cccc3F)n2)CCn2cncc21 [Example 600, 1-[(2,6-difluorophenyl)methyl]-N-[(3R)-1-methyl-2-oxo-4,5-dihydro-3H-imidazo[1,5-a][1,3]diazepin-3-yl]-1,2,4-triazole-3-carboxamide]",7.30

# Further compounds by rising pKi, results first:
row,pKi,Structure (SMILES)
1,7.32,"COc1ccccc1Cn1cnc(C(=O)N[C@H]2CCn3nc(C)cc3N(C)C2=O)n1 [Example 589, 1-[(2-methoxyphenyl)methyl]-N-(6S)-2,4-dimethyl-5-oxo-7,8-dihydro-6H-pyrazolo[1,5-a][1,3]diazepin-6-yl-1,2,4-triazole-3-carboxamide]"
2,7.33,"Cc1ncn2c1N(C)C(=O)[C@H](NC(=O)c1ncn(Cc3c(F)cccc3F)n1)CC2 [Example 581, 1-[(2,6-difluorophenyl)methyl]-N-(3R)-1,9-dimethyl-2-oxo-4,5-dihydro-3H-imidazo[1,5-a][1,3]diazepin-3-yl-1,2,4-triazole-3-carboxamide]"
3,7.33,"COc1ccccc1Cn1cnc(C(=O)N[C@H]2CCn3nccc3N(C)C2=O)n1 [Example 587, 1-[(2-methoxyphenyl)methyl]-N-(6S)-4-methyl-5-oxo-7,8-dihydro-6H-pyrazolo[1,5-a][1, 3]diazepin-6-yl-1,2,4-triazole-3-carboxamide]"
4,7.37,"CN1C(=O)[C@H](NC(=O)c2ncn(Cc3ccccc3F)n2)CCn2ccnc21 [Example 601, 1-[(2-fluorophenyl)methyl]-N-(7R)-9-methyl-8-oxo-6,7-dihydro-5H-imidazo[1,2-a][1,3]diazepin-7-yl-1,2,4-triazole-3-carboxamide]"
5,7.40,"Cc1ncc2n1CC[C@@H](NC(=O)c1ncn(Cc3ccccc3F)n1)C(=O)N2C [Example 576, 1-[(2-fluorophenyl)methyl]-N-(3R)-1,7-dimethyl-2-oxo-4,5-dihydro-3H-imidazo[1,5-a][1, 3]diazepin-3-yl-1,2,4-triazole-3-carboxamide]"
6,7.40,"Cc1ncc2n1CC[C@@H](NC(=O)c1ncn(Cc3c(F)cccc3F)n1)C(=O)N2C [Example 578, 1-[(2,6-difluorophenyl)methyl]-N-[(3R)-1,7-dimethyl-2-oxo-4,5-dihydro-3H-imidazo[1,5-a][1,3]diazepin-3-yl]-1,2,4-triazole-3-carboxamide]"
7,7.43,"CN1C(=O)[C@@H](NC(=O)c2nc3n(n2)CCC3c2ccccc2)CCn2nccc21 (stereo partly drawn) [Example 579, 7-phenyl-N-[(6S)-4-methyl-5-oxo-7,8-dihydro-6H-pyrazolo[1,5-a][1,3]diazepin-6-yl]-6,7-dihydro-5H-pyrrolo[1,2-b][1,2,4]triazole-2-carboxamide]"
8,7.46,"CN1C(=O)[C@H](NC(=O)c2ncn(Cc3ccccc3F)n2)CCn2cncc21 [Example 599, 1-[(2-fluorophenyl)methyl]-N-(3R)-1-methyl-2-oxo-4,5-dihydro-3H-imidazo[1,5-a][1,3]diazepin-3-yl-1,2,4-triazole-3-carboxamide]"
9,7.60,"Cc1cc2n(n1)CC[C@H](NC(=O)c1ncn(Cc3ccccc3C(F)(F)F)n1)C(=O)N2C [Example 584, N-(6S)-2,4-dimethyl-5-oxo-7,8-dihydro-6H-pyrazolo[1,5-a][1,3]diazepin-6-yl-1-[[2-(trifluoromethyl)phenyl]methyl]-1,2,4-triazole-3-carboxamide]"
10,7.62,"CN1C(=O)[C@@H](NC(=O)c2ncn(Cc3ccccc3)n2)CCn2nc(C3(F)CC3)cc21 [Example 570, 1-benzyl-N-(6S)-2-(1-fluorocyclopropyl)-4-methyl-5-oxo-7,8-dihydro-6H-pyrazolo[1,5-a][1,3]diazepin-6-yl-1,2,4-triazole-3-carboxamide]"
11,7.62,"CN1C(=O)[C@@H](NC(=O)c2ncn(Cc3ccccc3C(F)(F)F)n2)CCn2nccc21 [Example 583, N-(6S)-4-methyl-5-oxo-7,8-dihydro-6H-pyrazolo[1,5-a][1,3]diazepin-6-yl]-1-[[2-(trifluoromethyl)phenyl]methyl-1,2,4-triazole-3-carboxamide]"
12,7.64,"CN1C(=O)[C@@H](NC(=O)c2nc3n(n2)CCC3c2ccccc2)COc2ccccc21 (stereo partly drawn) [Example 571, 7-phenyl-N-[(3S)-5-methyl-4-oxo-2,3-dihydro-1,5-benzoxazepin-3-yl]-6,7-dihydro-5H-pyrrolo[1,2-b][1,2,4]triazole-2-carboxamide]"
13,7.77,"CN1C(=O)[C@@H](NC(=O)c2nc3n(n2)CC[C@@H]3c2ccccc2)COc2ccccc21 [Example 573, (7R)-7-phenyl-N-[(3S)-5-methyl-4-oxo-2,3-dihydro-1,5-benzoxazepin-3-yl]-6,7-dihydro-5H-pyrrolo[1,2-b][1,2,4]triazole-2-carboxamide]"
14,7.77,"Cc1cc2n(n1)CC[C@H](NC(=O)c1ncn(Cc3ccccc3C)n1)C(=O)N2C [Example 591, 1-(o-tolylmethyl)-N-(6S)-2,4-dimethyl-5-oxo-7,8-dihydro-6H-pyrazolo[1,5-a][1,3]diazepin-6-yl-1,2,4-triazole-3-carboxamide]"
15,7.89,"Cc1ccccc1Cn1cnc(C(=O)N[C@H]2CCn3nccc3N(C)C2=O)n1 [Example 588, 1-(o-tolylmethyl)-N-(6S)-4-methyl-5-oxo-7,8-dihydro-6H-pyrazolo[1,5-a][1,3]diazepin-6-yl-1,2,4-triazole-3-carboxamide]"
16,8.09,"CN1C(=O)[C@@H](NC(=O)c2nc3c(-c4ccccc4)cccn3n2)COc2ccccc21 [Example 568, 8-phenyl-N-[(3S)-5-methyl-4-oxo-2,3-dihydro-1,5-benzoxazepin-3-yl]-[1,2,4]triazolo[1,5-a]pyridine-2-carboxamide]"
17,8.33,CN1C(=O)[C@@H](NC(=O)c2ncc3cnn(-c4c(F)cccc4F)c3n2)COc2ccccc21 [Example 595]
